# What was measured:
# [1] = system: HSV-1 B2006 strain (thymidine kinase-deficient, TK−); assay: microbe, parasite or virus in culture; format: cell-based, herpes simplex virus type 1 (HSV-1); conditions: Human alphaherpesvirus 1, 48 h, read-out: EC50 B2006
# Experimental: (§1) The synthetic compounds and acyclovir (ACV, Sigma) were dissolved in dimethylsulfoxide (DMSO) and diluted with Eagle’s minimal essential medium supplemented with 1.5% inactivated fetal bovine serum (FBS) and 50 μg/mL gentamicin (MEM 1.5%).
# (§2) Vero and Hep-2 cells were grown in MEM supplemented with 10% inactivated FBS and 50 µg/mL gentamicin and maintained in MEM 1.5%. Raw 264.7 cells were grown in Dulbecco’s Modified Eagle’s Medium (DMEM) supplemented with 10% FBS and 50 µg/mL gentamicin and maintained in DMEM 1.5%. C6 cells were grown in DMEM-F12 supplemented with 2.5% FBS50 µg/mL gentamicin and 15% horse serum (HS) and maintained in DMEM-F12 supplemented with 1.5% FBS. HSV-1 KOS, thymidine kinase-deficient (TK−) B2006 and Field strains of HSV-1 were used and propagated at low multiplicity of infection (m.o.i.) on Vero cells.
# (§3) Cells grown in 96-well plates were infected or not with HSV-1 (KOS, Field and B2006 strains) at a m.o.i. of 0.1 PFU/cell. After 1-h adsorption at 37 °C, the inoculum was removed and medium containing or not the compounds was added, in triplicate. […] Then, cells were fixed with 10% formaldehyde for 15 min at room temperature, washed once with distilled water and stained with 0.05% crystal violet in 10% ethanol over 30 min. […] The absorbance of each well was measured on an Eurogenetics MPR-A 4i microplate reader using a test wave-length of 590 nm.
# HSV-1 KOS strain = assay: Cytopathic effect assay, HSV-1 KOS; format: cell-based, herpes simplex virus type 1 (HSV-1); conditions: Human alphaherpesvirus 1; inhibition of 50% viral cytopathic effect; m.o.i. 0.1 PFU/cell, 48 h p.i.; nonlinear regression
# Experimental: as §1, §2, §3
# in vitro = format: cell-based; conditions: African green monkey
# Experimental: as §1, §2
# Cell viability was determined using the tetrazolium salt MTT (3-(4,5-dimethylthiazol-2-yl)-2,5-diphenyltetrazolium bromide, Sigma) according to the manufacturer’s instructions. […] The absorbance was measured on a MPR-A 4i microplate reader (Eurogenetics, Tipperary, Ireland) using a test wavelength of 570 nm and a reference wavelength of 630 nm. Results were expressed as a percentage of absorbance of treated cell cultures with respect to untreated ones. […]
# HSV-1 Field strain = assay: Cytopathic effect assay, HSV-1 Field; format: cell-based, herpes simplex virus type 1 (HSV-1); conditions: Human alphaherpesvirus 1; inhibition of 50% viral cytopathic effect; m.o.i. 0.1 PFU/cell, 48 h p.i.; nonlinear regression
# Experimental: as §1, §2, §3
smiles,measurement,setting,value
"Nc1nc2c(ncn2COCCO)c(=O)[nH]1 [ACV, Acyclovir]",EC50,[1],50 ± 2 µM
same,EC50,HSV-1 KOS strain,8.2 ± 1 µM
same,CC50 at 48 h,in vitro,> 1000 µM
same,EC50,HSV-1 Field strain,73 ± 1 µM

# Source: paper PMC6099630, “Synthesis, Antiviral and Cytotoxic Activity of Novel Terpenyl Hybrid Molecules Prepared by Click Chemistry” (Molecules : A Journal of Synthetic Chemistry and Natural …, 2018)
